Earlier results in patent US9205144B2, “Identification of conserved peptide blocks in homologous polypeptides” (Dana-Farber Cancer Institute, Inc., priority 2011, dated 2015).

Experiments:
[1] = tested on: HLA-11
[2] = target: HLA-03 (Homo sapiens, UniProt P04439)
[3] = tested on: HLA-31

Chain of HLA-03 (P04439 25-365): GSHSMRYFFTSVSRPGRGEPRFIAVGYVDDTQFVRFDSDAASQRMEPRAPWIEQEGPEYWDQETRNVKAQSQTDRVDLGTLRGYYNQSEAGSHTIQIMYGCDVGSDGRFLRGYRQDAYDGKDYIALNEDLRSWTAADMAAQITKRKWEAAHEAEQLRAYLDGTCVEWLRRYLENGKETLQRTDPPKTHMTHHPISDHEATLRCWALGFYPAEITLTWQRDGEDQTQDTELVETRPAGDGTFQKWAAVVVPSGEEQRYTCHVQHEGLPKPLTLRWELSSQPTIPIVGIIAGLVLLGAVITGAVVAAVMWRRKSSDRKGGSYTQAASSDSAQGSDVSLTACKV
Chain of HLA-03 (P61769 21-119, further chain): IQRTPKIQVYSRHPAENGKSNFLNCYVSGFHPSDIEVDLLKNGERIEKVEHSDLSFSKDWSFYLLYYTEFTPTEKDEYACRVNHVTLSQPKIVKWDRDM

KTFDTEYQK (listed as Dengue virus) [Peptide 1]
known ligand: ligand for HLA-11 [1] | ligand for HLA-03 [2] | ligand for HLA-31 [3]
